One test relates to PRRSV-RESP strain. The experiment in a line: In vitro infectivity of PRRSV, plaque titration on Marc-145 cells. It is filed as cell-based. The conditions noted are these: for In Vitro Infectivity: 60 minutes at 37° C. How it is done: The PRRSV are titrated for in vitro infectivity using the following procedure. Using the cell culture and transfer procedures above, Marc-145 cells are suspended in DMEM containing 10% FBS at a final density of 1.5×10^5 cell/mL. Two mL of the Marc-145 cell suspension are added to each well of a 6-well plate, and the plates are incubated overnight at 37° C. with 5% CO2. Virus samples are thawed in a 37° C. water bath, followed by centrifugation at 500×g for 10 minutes at 4° C. A 1/10 dilution series of viruses is prepared and stored at 4° C. until use, using EMEM as the dilution buffer.
When the Marc-145 cells are at least 90% confluent, the medium is removed, and 0.5 mL dilution buffer and 0.5 mL of the virus dilution are added into each well. For the negative control, 1.0 mL dilution buffer is used. The plates are gently shaken immediately after each dilution is added. Plates are incubated for 60-90 minutes at 37° C. in 5% CO2 and rocked every 15 minutes. Each well of each 6-well plate is then overlaid with 3 mL of a 1:4 mixture of 2.5% low melting point agarose in PBS solution and dilution buffer at 37° C. The plates are incubated at room temperature for 15 minutes to allow the overlay mixture to solidify, and then the plates are incubated at 37° C. with 5% CO2 for 96 hours.
Plaques are visualized using the following procedure. After the plaques are fully developed (96 hours post-infection), 1 mL 4% paraformaldehyde is added, and the plates are incubated at room temperature for 1 hour. Solubilized agarose is discarded, and 0.5 mL of 0.5% crystal violet is added to each well. The number of plaques is counted after 15 minutes of incubation with the crystal violet and converted to a titer based on the dilution factors.
Solvent and mock treatments are conducted according to the following procedure. One hundred μL aliquots of the concentrated PRRSV stock at about 1×10^9 PFU/mL are diluted into 900 μL PBS in Eppendorf tubes to achieve a final titer of 1.0-5.0×10^8 PFU/mL. […] Eppendorf tubes are then capped and sealed with parafilm. All the samples are secured in an SHZ-82 constant-temperature orbital air-bath shaker (Changzhou Guohua Appliance Co., China) preheated to 37° C. The solvent- and mock-treated samples are spun at an orbital rotation speed of 220 rpm at 37° C. for the desired time. The respective samples are spun in a micro-centrifuge for 1 minute, and the supernatants containing IFV are transferred to ultracentrifuge tubes. Tubes are centrifuged at 100,000×g (OPTIMA™ L-100XP centrifuge; Beckman Coulter, Inc., Indianapolis Ind.) for 30 minutes to pellet the PRRSV, and the supernatants are discarded. The PRRSV pellets are resuspended in 200 μL PBS and stored at −80° C. until further analyses.
The protein content of the delipidated and mock-treated PRRSV is determined using a BCA assay (PIERCE™ BCA Protein Assay Kit) according to the manufacturer's instructions. The cholesterol content also is determined using a cholesterol assay (Amplex® Red Cholesterol Assay Kit, Life Technologies, Grand Island, N.Y.) performed according to manufacturer's instruction. In vitro infectivity is measured using the same procedures as set forth above.
After ultracentrifugation, the mock-treated and delipidated samples are tested for in vitro infectivity in the Marc-145 cells, and protein and cholesterol contents are determined, using the procedures set forth above.

Test [1] deals with human influenza virus H1N1 A/WSN/33 strain. It is filed as cell-based. The conditions noted are these: 50 mM MBCD.

Read-outs that look alike come from different tables or passages of the source.

In the case of methyl β-cyclodextrin [MBCD], the “titer of delipidated PRRSV sample” value in the test on PRRSV-RESP strain (100 mM MBCD for 90 minutes) is recorded as “under the limit of detection”. For the same substance, the “In Vitro Infectivity” value in the test on PRRSV-RESP strain (PRRSV-RESP, 5 mM MBCD) is 1.4 × 10^7 PFU/mL; with PRRSV-RESP strain (PRRSV-RESP, 10 mM MBCD) it was 7.0 × 10^6 PFU/mL; in the test with PRRSV-RESP strain (PRRSV-RESP, 20 mM MBCD), 2.8 × 10^6 PFU/mL; in the test on PRRSV-RESP strain (PRRSV-RESP, 30 mM MBCD) it was 1.2 × 10^5 PFU/mL; in the test on PRRSV-RESP strain (PRRSV-RESP, 50 mM MBCD), 4.2 × 10^4 PFU/mL. Besides, in the test with PRRSV-RESP strain (PRRSV-RESP, 50 mM MBCD, 60 min at 37° C.), the PRRSV infectivity reduced result was “about 380 fold”. Also, the “IFV infectivity reduced, compared to the mock-treatment” value in test [1] (37° C., 30 minutes, […]) is 2250 fold. Also, the PFU/mL in test [1] (IFV, 37° C., 30 minutes) is listed as 4.0 × 10^5 PFU/mL; in test [1] (IFV, end-over-end rotation at 37° C. for 45 minutes) it was 1.0 × 10^3 PFU/mL. Moreover, the “less infectious in vitro, compared to the mock treatment” value in test [1] (IFV, 45 minute treatment) is reported as “over 10,000 fold”.

The values are drawn from patent US10420831B2, “Inactivation of viruses by delipidation” (priority 2016, dated 2019).
